Converted amounts (≈) assume the structure as drawn. The source made the active and inactive calls. No cut-off for these calls is given here.
Key:
[1] = Intrinsic clearance in rat liver microsomes; assay type: ADME, Microsome; settings: read-out: CLH
[2] = Intrinsic clearance in human liver microsomes; assay type: ADME, Microsome; settings: read-out: CLH
[3] = Ratio of drug level in brain to plasma in mouse; assay type: ADME, organism-based; settings: read-out: BPR
Cannabinoid receptor 1 [4] = target: T1, Cannabinoid receptor 1 (Homo sapiens, UniProt P21554); test: Displacement of [3H]CP 55,940 from human CB1 receptor expressed in insect sf9 membranes; assay type: cell membranes
T1 sequence (P21554 whole entry): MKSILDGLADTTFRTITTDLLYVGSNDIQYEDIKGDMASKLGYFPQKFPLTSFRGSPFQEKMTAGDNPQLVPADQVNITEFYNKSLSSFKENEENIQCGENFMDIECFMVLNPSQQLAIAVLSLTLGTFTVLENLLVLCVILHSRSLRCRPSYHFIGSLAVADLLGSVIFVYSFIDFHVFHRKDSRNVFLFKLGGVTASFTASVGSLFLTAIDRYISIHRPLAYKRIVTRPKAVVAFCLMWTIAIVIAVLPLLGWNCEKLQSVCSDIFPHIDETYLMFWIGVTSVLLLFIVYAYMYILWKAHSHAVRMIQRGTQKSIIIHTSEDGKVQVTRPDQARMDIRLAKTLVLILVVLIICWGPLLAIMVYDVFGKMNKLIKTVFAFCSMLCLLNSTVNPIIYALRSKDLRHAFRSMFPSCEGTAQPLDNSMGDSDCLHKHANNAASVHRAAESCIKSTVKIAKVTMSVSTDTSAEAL

Cannabinoid receptor 2 = Cannabinoid receptor 2 (Homo sapiens, UniProt P34972); test: Displacement of [3H]CP 55,940 from human CB2 receptor expressed in insect sf9 membranes; assay type: cell membranes
Chain of Cannabinoid receptor 2 (P34972 whole entry): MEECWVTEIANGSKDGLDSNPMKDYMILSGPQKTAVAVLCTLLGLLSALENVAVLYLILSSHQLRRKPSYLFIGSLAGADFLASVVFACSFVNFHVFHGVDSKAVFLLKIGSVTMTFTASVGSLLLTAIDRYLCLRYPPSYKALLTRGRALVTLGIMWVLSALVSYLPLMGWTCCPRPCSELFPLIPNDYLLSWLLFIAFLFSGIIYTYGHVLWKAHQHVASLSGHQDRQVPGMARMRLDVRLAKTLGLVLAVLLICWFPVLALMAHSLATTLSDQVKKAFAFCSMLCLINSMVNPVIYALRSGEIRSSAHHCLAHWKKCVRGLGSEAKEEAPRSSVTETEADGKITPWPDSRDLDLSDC

[5] = Oral bioavailability in rat; assay type: ADME, organism-based; settings: in vivo
Cannabinoid receptor 1 [6] = target: T1, Cannabinoid receptor 1; test: Agonist activity at CB1 receptor; assay type: functional
Rattus norvegicus [7] = test: Toxicity in po dosed rat assessed as catalepsy by ring immobility test; assay type: organism-based; settings: in vivo
[8] = Cmax in Wistar BRL rat brain at 24 mg/kg, po by LC-MS/MS analysis; assay type: ADME, organism-based; design: dose 24 mg/kg, route oral
[9] = Intrinsic clearance in mouse liver microsomes; assay type: ADME, Microsome; settings: read-out: CLH
[10] = Volume of distribution at steady state in rat at 2 mg/kg, iv; assay type: ADME, organism-based; design: dose 2 mg/kg, route intravenous; settings: in vivo, read-out: Vdss
Rattus norvegicus [11] = test: Analgesic activity in po dosed rat Chung von Frey model of neuropathic pain assessed as anti-allodynic effect against mechanical stimulus in presence of CB1 receptor antagonist rimonabant; assay type: functional, organism-based
[12] = Plasma protein binding in dog; assay type: ADME, cell-free, Canis lupus familiaris; settings: read-out: PPB (converted)
[13] = Intrinsic clearance in dog liver microsomes; assay type: ADME, Canis lupus familiaris, Microsome; settings: read-out: CLH
[14] = Ratio of Cmax in CSF to free plasma of Wistar BRL rat at 24 mg/kg, po by LC-MS/MS analysis; assay type: ADME, organism-based; design: dose 24 mg/kg, route oral; settings: in vivo
Rattus norvegicus [15] = test: Analgesic activity in po dosed rat Chung von Frey model of neuropathic pain assessed as anti-allodynic effect against mechanical stimulus; assay type: functional
[16] = Half life in rat at 2 mg/kg, iv; assay type: ADME, organism-based; design: dose 2 mg/kg, route intravenous; settings: in vivo
[17] = Efflux ratio of apparent permeability from basolateral to apical side over apical to basolateral side in human Caco2 cells; assay type: ADME, cell-based; settings: Caco-2
[18] = Oral bioavailability in rat at 10 mg/kg; assay type: ADME, organism-based; settings: in vivo
[19] = Plasma protein binding in human; assay type: ADME, cell-free; settings: read-out: PPB (converted)
[20] = Clearance in rat at 2 mg/kg, iv; assay type: ADME, organism-based; design: dose 2 mg/kg, route intravenous; settings: in vivo
[21] = Intrinsic clearance in rat hepatocytes assessed per million cells; assay type: ADME, cell-based, Hepatocyte; settings: read-out: CLH
Rattus norvegicus [22] = test: Analgesic activity in po dosed rat Chung Hargreaves model of neuropathic pain assessed as inhibition of thermal hyperalgesia; assay type: functional
[23] = target: Voltage-gated inwardly rectifying potassium channel KCNH2 (Homo sapiens, UniProt Q12809); test: Displacement of [3H]dofetilide from human ERG
Chain of Voltage-gated inwardly rectifying potassium channel KCNH2 (Q12809 whole entry): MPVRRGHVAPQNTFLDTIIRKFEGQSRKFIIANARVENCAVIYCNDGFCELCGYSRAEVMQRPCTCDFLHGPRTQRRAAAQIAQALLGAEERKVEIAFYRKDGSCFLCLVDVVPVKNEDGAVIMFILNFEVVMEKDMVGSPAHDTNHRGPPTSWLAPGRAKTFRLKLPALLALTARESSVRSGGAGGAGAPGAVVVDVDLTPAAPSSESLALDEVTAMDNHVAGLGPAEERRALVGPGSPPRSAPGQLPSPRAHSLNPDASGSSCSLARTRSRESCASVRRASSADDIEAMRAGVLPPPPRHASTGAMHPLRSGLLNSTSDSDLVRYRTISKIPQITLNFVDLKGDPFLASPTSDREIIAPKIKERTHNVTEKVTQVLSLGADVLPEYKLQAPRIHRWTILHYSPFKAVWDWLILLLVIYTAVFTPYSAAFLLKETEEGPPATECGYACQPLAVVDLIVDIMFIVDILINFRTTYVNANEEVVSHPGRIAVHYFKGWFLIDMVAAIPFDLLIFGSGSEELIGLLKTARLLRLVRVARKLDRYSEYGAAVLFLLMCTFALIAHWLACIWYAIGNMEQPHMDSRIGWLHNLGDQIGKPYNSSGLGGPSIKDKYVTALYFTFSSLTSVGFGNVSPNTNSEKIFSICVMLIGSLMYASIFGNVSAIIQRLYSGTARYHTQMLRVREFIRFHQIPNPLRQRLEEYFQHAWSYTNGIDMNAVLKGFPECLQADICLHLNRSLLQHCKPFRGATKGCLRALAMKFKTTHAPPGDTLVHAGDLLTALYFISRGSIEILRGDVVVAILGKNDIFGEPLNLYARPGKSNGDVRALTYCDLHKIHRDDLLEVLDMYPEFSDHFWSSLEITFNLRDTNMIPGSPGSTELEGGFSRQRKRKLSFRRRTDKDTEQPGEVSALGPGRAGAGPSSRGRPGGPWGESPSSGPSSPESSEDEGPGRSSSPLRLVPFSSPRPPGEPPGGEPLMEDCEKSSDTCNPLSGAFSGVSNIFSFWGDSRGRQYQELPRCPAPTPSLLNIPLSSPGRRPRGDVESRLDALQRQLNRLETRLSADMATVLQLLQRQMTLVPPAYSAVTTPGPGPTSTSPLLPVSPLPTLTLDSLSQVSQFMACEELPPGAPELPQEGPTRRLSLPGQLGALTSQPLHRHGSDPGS

[24] = Ratio of AUC in brain to plasma of Wistar BRL rat at 24 mg/kg, po by LC-MS/MS analysis; assay type: ADME, organism-based; design: dose 24 mg/kg, route oral; settings: read-out: Ratio AUC
[25] = Plasma protein binding in rat; assay type: ADME, cell-free; settings: read-out: PPB (converted)
[26] = Apparent permeability across human Caco2 cells; assay type: ADME, cell-based; settings: Caco-2
[27] = Ratio of AUC in CSF to free plasma of Wistar BRL rat at 24 mg/kg, po by LC-MS/MS analysis; assay type: ADME, organism-based; design: dose 24 mg/kg, route oral; settings: in vivo
[28] = Cmax in mouse plasma at 3 umol/kg, iv; assay type: ADME, organism-based; design: dose 3 umol/kg, route intravenous
Rattus norvegicus [29] = test: Ratio of MED for toxicity in […] to ED50 for anti-allodynic activity in po dosed rat Chung von Frey model of neuropathic pain; assay type: functional
[30] = Intrinsic clearance in rabbit liver microsomes; assay type: ADME, Oryctolagus cuniculus, Microsome; settings: read-out: CLH
[31] = Intrinsic clearance in human hepatocytes assessed per million cells; assay type: ADME, cell-based, Hepatocyte; settings: read-out: CLH
[32] = Plasma protein binding in mouse; assay type: ADME, cell-free; settings: read-out: PPB (converted)
[33] = Cmax in mouse brain at 3 umol/kg, iv; assay type: ADME, organism-based; design: dose 3 umol/kg, route intravenous
[34] = Ratio of Cmax in brain to plasma of Wistar BRL rat at 24 mg/kg, po by LC-MS/MS analysis; assay type: ADME, organism-based; design: dose 24 mg/kg, route oral
[35] = Cmax in Wistar BRL rat CSF at 24 mg/kg, po by LC-MS/MS analysis; assay type: ADME, organism-based, Cerebrospinal fluid; design: dose 24 mg/kg, route oral
[36] = Solubility of the compound at pH 7.4; assay type: physicochemical; settings: buffer
[37] = Cmax in Wistar BRL rat plasma at 24 mg/kg, po by LC-MS/MS analysis; assay type: ADME, organism-based; design: dose 24 mg/kg, route oral
[38] = Ratio of AUC in mouse brain to AUC in mouse plasma at 3 umol/kg, iv; assay type: ADME; settings: read-out: Ratio AUC
[39] = Ratio of Cmax in mouse brain to Cmax in mouse plasma at 3 umol/kg, iv; assay type: ADME
[40] = Plasma protein binding in rabbit; assay type: ADME, cell-free, Oryctolagus cuniculus; settings: read-out: PPB (converted)

For `O=C(NCCO)C1CCN(Cc2nc(-c3cn(CC4CCOCC4)c4c(Cl)cccc34)no2)CC1`, the microsomal CLint [1] was 18 µL/min/mg, the microsomal CLint [2] was 16 µL/min/mg and the Kp [3] was 0.03. For the same compound, the Ki (Cannabinoid receptor 1 [4]) was 3.98 nM, the Ki (Cannabinoid receptor 2) was 20 nM and the bioavailability [5] was 8%.
With `COc1cccc2c(-c3nsc(CN4CCC(C(=O)NCCO)CC4)n3)cn(CC3CCOCC3)c12` the EC50 (Cannabinoid receptor 1 [6]) was 31.6 nM, the microsomal CLint [1] was 33 µL/min/mg and the microsomal CLint [2] was 19 µL/min/mg.
For `NC(=O)CN1CCN(Cc2nc(-c3cn(CC4CCS(=O)(=O)CC4)c4c(Cl)cccc34)no2)CC1`, the EC50 (Cannabinoid receptor 1 [6]) was 501 nM, the microsomal CLint [1] was 48 µL/min/mg and the microsomal CLint [2] was under 12 µL/min/mg.
`CN(CC(=O)NCCO)Cc1nc(-c2cn(CC3CCOCC3)c3c(Cl)cccc23)no1` gave a microsomal CLint [1] of 49 µL/min/mg and a microsomal CLint [2] of 66 µL/min/mg.
In the case of `O=C(NCCO)C1CCN(Cc2nc(-c3cn(CC4CCOCC4)c4c(Cl)cccc34)ns2)CC1`, the EC50 (Cannabinoid receptor 1 [6]) is reported as 79.4 nM, the microsomal CLint [1] is reported as 49 µL/min/mg and the microsomal CLint [2] is reported as 18 µL/min/mg.
In the case of `COc1cccc2c(-c3nsc(CN(C)CC(N)=O)n3)cn(CC3CCOCC3)c12`, the EC50 (Cannabinoid receptor 1 [6]) is reported as 1260 nM.
For `CN(CC(N)=O)Cc1nc(-c2cn(CC3CCOCC3)c3c(Cl)cccc23)no1.Cl`, the microsomal CLint [1] was 43 µL/min/mg, the microsomal CLint [2] was 36 µL/min/mg and the Kp [3] was 0.9.
In the case of `NC(=O)CN1CCN(Cc2nc(-c3cn(CC4CCOCC4)c4c(Cl)cccc34)no2)CC1`, the MED (Rattus norvegicus [7]) is reported as over 160 µmol/kg, the Cmax [8] is reported as 148 ng/g and the microsomal CLint [1] is reported as under 12 µL/min/mg. For the same compound, the microsomal CLint [9] was under 12 µL/min/mg, the Vd [10] was 2.6 L/kg and the Activity (Rattus norvegicus [11]) was “inactive”. The fraction unbound [12] was 0.063, the microsomal CLint [13] was 13 µL/min/mg and the Ratio [14] was 0.23. For the same compound, the ED50 (Rattus norvegicus [15]) was 17 µmol/kg, the half-life [16] was 3.8 h and the efflux ratio [17] was 1.5. For the same compound, the microsomal CLint [2] was 12 µL/min/mg, the bioavailability [18] was 45% and the fraction unbound [19] was 0.04. For the same compound, the clearance [20] was 9.5 mL/min/kg, the hepatocyte CLint [21] was 7 µL/min/1e6 cells and the ED50 (Rattus norvegicus [22]) was 2.5 µmol/kg. The Ki [23] was 20000 nM, the Kp [24] was 0.22 and the fraction unbound [25] was 0.039. The Papp [26] was 6.2 ×10⁻⁶ cm/s, the “Ratio AUC” value [27] was 0.21 and the Cmax [28] was 814 ng/mL. It also gave a Kp [3] of 0.16, a Ratio (Rattus norvegicus [29]) of over 9.3 and a microsomal CLint [30] of under 12 µL/min/mg. It also gave a hepatocyte CLint [31] of 3 µL/min/1e6 cells, a fraction unbound [32] of 0.034 and a Cmax [33] of 134 ng/g. For the same compound, the Kp [34] was 0.2, the Cmax [35] was 6.4 ng/mL and the solubility [36] was 89 µg/mL (≈ 188 µM). The Cmax [37] was 722 ng/mL, the Ki (Cannabinoid receptor 1 [4]) was 20 nM and the Ki (Cannabinoid receptor 2) was 50.1 nM. The Kp [38] was 0.16, the Kp [39] was 0.16 and the fraction unbound [40] was 0.037. For the same compound, the bioavailability [5] was 45%.
Work on `COc1cccc2c(-c3noc(CN4CCC(C(=O)NCCO)CC4)n3)cn(CC3CCOCC3)c12` yielded an EC50 (Cannabinoid receptor 1 [6]) of 631 nM.
`COc1cccc2c(-c3noc(CN(C)CC(N)=O)n3)cn(CC3CCOCC3)c12` showed an EC50 (Cannabinoid receptor 1 [6]) of 2510 nM.

Source: ChEMBL document CHEMBL2016544, “Low brain penetrant CB1 receptor agonists for the treatment of neuropathic pain” (Bioorg Med Chem Lett, 2012)
